According to patent US20140011889A1, “Resveratrol-Containing Compositions and Methods of Use for Cardiac-Related Diseases” (Resveratrol Partners, LLC, priority 2010, published 2014):

Tests used:
SIRT1 = biological target: T1, SIRT1 (Homo sapiens, UniProt Q96EB6); assay: SIRT1 Fluorescent Activity Assay/Drug Discovery Kit AK-555; format: biochemical; conditions: capsules stored under ambient conditions
T1 sequence (Q96EB6 1-747): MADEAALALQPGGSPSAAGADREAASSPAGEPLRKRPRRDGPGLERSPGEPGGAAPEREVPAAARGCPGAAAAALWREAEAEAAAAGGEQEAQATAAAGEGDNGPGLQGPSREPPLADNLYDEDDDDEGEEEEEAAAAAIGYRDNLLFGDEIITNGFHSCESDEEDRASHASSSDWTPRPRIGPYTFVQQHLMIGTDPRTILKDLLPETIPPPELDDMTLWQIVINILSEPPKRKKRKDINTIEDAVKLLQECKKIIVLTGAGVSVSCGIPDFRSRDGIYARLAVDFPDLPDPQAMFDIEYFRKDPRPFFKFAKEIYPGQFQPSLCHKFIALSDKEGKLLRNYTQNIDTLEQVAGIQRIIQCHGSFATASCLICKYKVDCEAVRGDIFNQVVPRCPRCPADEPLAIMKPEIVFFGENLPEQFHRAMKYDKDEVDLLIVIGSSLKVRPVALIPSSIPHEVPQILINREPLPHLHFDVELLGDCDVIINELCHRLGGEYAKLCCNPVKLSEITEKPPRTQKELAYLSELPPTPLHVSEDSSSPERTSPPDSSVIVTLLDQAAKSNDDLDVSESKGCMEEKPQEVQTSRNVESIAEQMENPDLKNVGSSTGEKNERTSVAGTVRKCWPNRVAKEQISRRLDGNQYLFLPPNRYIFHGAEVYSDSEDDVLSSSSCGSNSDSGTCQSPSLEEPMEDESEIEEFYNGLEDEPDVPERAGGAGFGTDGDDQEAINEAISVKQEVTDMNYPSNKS

rhabdomyosarcoma cells = conditions: low dosage; cited from earlier work
injected tumors = conditions: mice with injected tumors; cited from earlier work
miR-20b = miR-20b quantification in I/R heart, Taqman real-time PCR; format: in vivo, rat; conditions: I/R alone: down regulation […]; FIG. 17C
Text: Animals. […] Male Sprague-Dawley rats weighing between 250 and 300 g were fed ad libitum regular rat chow with free access to water until the start of the experimental procedure.

reactive oxygen species = assay: Intracellular ROS by CM-H2DCFDA fluorescence in I/R heart; format: in vivo, rat; conditions: IR heart, FIG. 19
Experimental: The dye was injected intravenously, prior to induction of ischemia/reperfusion, and at the end of the experiments, the level of fluorescence was determined for the generation of ROS by measuring the fluorescent oxidation product CM-DCF in the cytosol, at an excitation wavelength of 480 nm and an emission wavelength of 520 nm.

cancer risk = conditions: 1100 IU, 4-year period, women in Nebraska; cited from earlier work
breast cancer cells = conditions: cited from earlier work

O=c1c(O)c(-c2ccc(O)c(O)c2)oc2cc(O)cc(O)c12 [quercetin]
biological activity of encapsulated quercetin (ability to stimulate SIRT1 activity) (SIRT1): maintained biological activity

O=P(O)(O)O[C@H]1[C@H](OP(=O)(O)O)[C@@H](OP(=O)(O)O)[C@H](OP(=O)(O)O)[C@@H](OP(=O)(O)O)[C@H]1OP(=O)(O)O [IP6, (2,3,4,5,6-pentaphosphonooxycyclohexyl)dihydrogen phosphate]
suppression of growth of rhabdomyosarcoma cells (rhabdomyosarcoma cells): 50% | tumor size, times smaller than non-treated mice (injected tumors): 50 times

CC(C)=CCC/C(C)=C/CC/C(C)=C/CC[C@]1(C)CCc2cc(O)c(C)c(C)c2O1 [γ-tocotrienol]
miR-20b expression in pretreated I/R hearts (miR-20b): 9.4 fold | intracellular ROS concentration compared to control (reactive oxygen species): lowered

C=C1CC[C@H](O)C/C1=C/C=C1\CCC[C@]2(C)[C@@H]([C@H](C)CCCC(C)C)CC[C@@H]12 [vitamin D3, cholecalciferol]
reduction in cancer risk (cancer risk): 60-77% | decline of number of breast cancer cells (breast cancer cells; higher concentrations of vitamin D3): about 25% | decline of breast tumor cell numbers (breast cancer cells; low-dose vitamin D3): does not reduce
